Assays:
p-ERK [1] = test: Immunohistochemistry of B16F10 tumors (Day 17), p-ERK; assay type: in vivo, mouse; conditions: B16F10 tumors Day 17, 200 mg/kg i.p.
Description: (§1) Immunohistochemical staining and analyses. Rabbit monoclonal anti-CD3 (cat. no. ab16669; mouse, rat and human reactive), rabbit monoclonal anti-PD-1 (cat. no. ab214421), rabbit monoclonal anti-CD68 (cat. no. ab125212) antibodies were obtained from Abcam, rabbit monoclonal anti-phospho-ERK (Thr^202/Tyr^204) (cat. no. CST4370), rabbit monoclonal total ERK (cat. no. CST4695), antibodies were obtained from Cell Signaling Technology. Rabbit polyclonal anti-PD-L1 (cat. no. PA5-20343) antibody was obtained from ThermoFisher.
(§2) Formalin fixed, paraffin embedded sections were prepared from tumors. Heat-induced epitope retrieval was applied to all deparaffinized sections (4 μm sections on Superfrost slides) with citrate buffer, pH 6.0 for 5 min at 110° C. […] Integrated optical density (IOD) or area of positive staining (red chromagen) was assessed using Image-Pro Plus software (Cybernetics, Bethesda, MD, USA). Positive staining was the average of quantitation in 4-8 fields of view under 20× or 40× objectives.
To assess the effect of BT2 in the same model, C57BL/6J mice bearing s.c. B16F10 tumors were administered with BT2 or vehicle (200 mg/kg or 20 ml/kg, respectively, i.p.) once a day on a 5 days-on/2 days-off schedule. […] Tumor size on Day 17 measured using callipers (FIG. 10A) correlated with isolated weighed tumors (FIG. 10B).

PD-L1 = test: Immunohistochemistry of B16F10 tumors (Day 17), PD-L1; assay type: in vivo, mouse; conditions: B16F10 tumors Day 17, 200 mg/kg i.p., vs vehicle
Description: as §1
as §2, with “C. Sections were blocked with Dual Endogenous Enzyme Block (DAKO, S2003) for 10 min and then with 2% skim milk for 20 min. Slides were incubated with primary antibody for 60 min at room temperature or overnight at 4° C. and then for 10 min with probe of MACH3 Rabbit AP-Polymer Detection solution (Biocare Medical, M3R533 G, H, L).” for “C.”, “objectives. […]” for “objectives.”

p-ERK [2] = test: Western blotting time course for p-ERK, Jurkat T cells; assay type: cell-based, human; conditions: Western blot time course
Description: (§3) Western blotting. Cells were treated with compounds and times indicated and total cell lysates were prepared in RIPA buffer. Lysates (10 μg) were resolved by SDS-PAGE and transferred to Immobilon-P polyvinylidene difluoride (PVDF) membranes (Millipore, USA).
(§4) Membranes were blocked with 5% skim milk and incubated with rabbit monoclonal anti-c-Jun (Abcam, cat. no. ab32137; mouse, rat and human reactive) antibody, rabbit monoclonal anti-PD-1 (Abcam, cat. no. ab214421) antibody, mouse monoclonal β-actin antibody (Sigma-Aldrich, cat. no. A5316), anti-phospho-SAPK/JNK (Thr^183/Tyr^185) (98F2) (CST, cat. no. 4671) antibody, anti-phospho-p44/42 MAPK (ERK1/2) (Thr^202/Tyr^204) (D13.14.4E) (CST, cat. no. 4370) antibody, anti-phospho-p38 MAPK (Thr^180/Tyr^182) (D3F9) (CST, cat. no. 4511) antibody, anti-SAPK/JNK antibody (CST, cat. no. 9252), anti-p44/42 MAPK (ERK1/2) (137F5) antibody (CST, cat. no. 4695), anti-p38 MAPK antibody (CST, cat. no. 9212), anti-DUSP8 antibody (Abcam, cat. no. ab198175) or anti-c-MAF (BLR045F) antibody (Abcam, cat. no. ab243901). […] Chemiluminescence was detected using the Western Lightning Chemiluminescence system (Thermo Scientific, USA) and ImageQuant™ LAS 4000 biomolecular imager (GE Healthcare Life Sciences, USA). Band intensity in images generated with the LAS 4000 was quantified using NIH Image J. […]

JUN = test: Western blotting for JUN, MeWo cells; assay type: cell-based, human; conditions: MeWo cells (BRAF WT), 24 h, dose-dependent
Description: as §3, §4

CCOC(=O)Nc1ccc2c(c1)C(=O)N(CC)c1ccccc1O2 [BT2, (10-ethyl-11-oxo-10,11-dihydro-dibenzo[b,f][1,4]oxazepin-2-yl)-carbamic acid ethyl ester]
ERK phosphorylation in tumors (IHC) (p-ERK [1]): suppression of ERK phosphorylation
PD-L1 levels in tumors (IHC) (PD-L1): increased
levels of ERK phosphorylation (p-ERK [2]): no effect
JUN expression (Western blot) (JUN): increased

Source: patent US20250352555A1, “METHOD OF INCREASING IMMUNE CELL ACTIVATION AND/OR TREATING CANCER USING DIBENZOXAZEPINONES” (VASCULAR THERAPEUTICS PTY LTD, priority 2022, published 2025)
